System: MCF7 antiproliferative assay
Assay: PubChem AID 1224918

EC50: 70 nM
Compound: COc1cc(-c2nn(CCN3CCC(N(C)C)CC3)c3ncnc(N)c23)ccc1NC(=O)OC(C)(C)C
